{"source": "paper PMC11357102", "about": "“Thiazole Functionalization of Thiosemicarbazone for Cu(II) Complexation: Moving toward Highly Efficient Anticancer Drugs with Promising Oral Bioavailability” (Molecules, 2024)", "key": {"[1]": {"details": "clinical trials; cited from earlier work"}, "Hep-G2 cells": {"system": "Hep-G2 cells", "test": "CCK-8 cytotoxicity assay, Hep-G2", "assay_type": "cell-based", "details": "Homo sapiens, HepG2; Hep-G2, CCK-8, 72 h incubation, n = 3", "protocol": "(§1) The cytotoxicity of HL, 1, and 2 against three hepatocellular carcinoma cell lines Hep-G2, PLC/PRF/5, and HuH-7 were evaluated by the cell counting kit-8 (CCK-8; APExBIO Technology, Houston, TX, USA) assay.\n(§2) The HuH-7 cell line was cultured in DMEM + 10% FBS + 1% P/S and DMEM + 1% P/S. Cells grew as a monolayer and were detached upon confluence using trypsin (0.5% w/v in PBS). The cells were harvested from the cell culture medium by incubation in trypsin solution for 3 min, and they were then centrifuged with the supernatant and subsequently discarded. A 3 mL portion of serum-supplemented cell culture medium was added to neutralize any residual trypsin. The cells were re-suspended in serum-supplemented DMEM at a concentration of 5 × 10^4 cells/mL. […] After incubation, 100 μL of culture medium (DMEM + 10% FBS + 1% P/S) and 10 μL of CCK-8 was introduced and cultured for an additional 2 h before spectrophotometric measurement at 450 nm on a microplate reader. The relative cell viability (%) related to control cells was calculated using the equation: V%=[A]experimental−[A]blank/[A]control−[A]blank×100% where V% is the percentage of cell viability, [A]experimental is the absorbance of the wells culturing the treated cells, [A]blank is the absorbance of the blank, and [A]control is the absorbance of the wells culturing untreated cells. […]"}, "PLC/PRF/5 cells": {"system": "PLC/PRF/5 cells", "test": "CCK-8 cytotoxicity assay, PLC/PRF/5", "assay_type": "cell-based", "details": "Homo sapiens; PLC/PRF/5, CCK-8, 72 h incubation, n = 3", "protocol": "as §1, §2"}, "HuH-7 cells [2]": {"system": "HuH-7 cells", "test": "CCK-8 cytotoxicity assay, HuH-7", "assay_type": "cell-based", "details": "Homo sapiens; HuH-7, CCK-8, 72 h incubation, n = 3", "protocol": "as §1, §2"}, "[3]": {"test": "Hydroxyl radical (•OH) production from H2O2, TMB assay", "details": "5, 10, 20, 30 μg/mL HL or equivalent HL, 100 μM H2O2, 20 min incubation", "procedure": "The generation of •OH from H2O2 by HL, 1, and 2 was assayed by 3,3′,5,5′-tetramethylbenzidine (TMB) [12, 28, 29]. The colorless TMB can be quickly oxidized by •OH to give a characteristic blue charge-transfer complex oxTMB with intense absorption at 652 nm [30, 31]. Different concentrations of HL (5, 10, 20, 30 μg/mL) or 1 and 2 containing equivalent HL were treated with (TMB) solution containing 100 μM H2O2, which is assumed as approximately the concentration reported to be present in tumor cells, or five times that in normal cells [32, 33]."}, "HuH-7 cells [4]": {"system": "HuH-7 cells", "test": "Intracellular ROS generation, DCFH-DA probe", "assay_type": "cell-based", "details": "HuH-7, equivalent HL concentration 2 μg/mL, 2 h", "description": "Given the efficient •OH production in water induced by 1 and 2, we next investigated in vitro ROS generation by 1 and 2 in the representative HuH-7 cell line using 2′,7′-dichlorodihydrofluorescein diacetate (DCFH-DA) as a fluorescence probe and compared it with that of HL [34, 35]. The non-emissive DCFH-DA can be readily uptaken by the cell, where it is hydrolyzed into 2,7-dichlorodihydrofluorescein (DCFH) by cellular enzymes. Upon oxidation by ROS, DCFH can convert to 2,7-dichlorofluorescein (DCF), which gives bright green fluorescence.\nHuH-7 cells were introduced into a 12-well plate (4 × 10^5 per well) in 1 mL of growing media (DMEM + 10% FBS + 1% P/S), and the cells were incubated at 37 °C under 5% CO2 for 24 h for attachment. The growing media were removed, and the wells were replenished with HL, 1, and 2 in 1 mL of growing media (with 2 ppm of DMSO) with equivalent HL concentrations of 2 μg/mL. The cells were incubated for an additional 2 h, and then the culturing media was replaced with […] DCFH-DA in DMEM + 1% P/S (1 mL), prepared by diluting (1:1000) a concentrated DCFH-DA following the supplied protocols. The cells were incubated for a further 20 min, and then the culturing media was removed. […]"}, "[5]": {"test": "In vivo pharmacokinetic study of HL (plasma, HPLC)", "parameters": "species or system CD®(SD) IGS rats", "protocol": "For pharmacokinetic studies, CD®(SD) IGS rats (5−6 weeks old) were randomly divided into two groups (three for each group) for oral administration (per os, PO) or intravenous administration (i.v.) of HL with dosages of 30 mg kg^−1 and 0.5 mg kg^−1, respectively (Tables S3 and S4). The blood was then collected from the orbital sinus with a heparinized syringe at different time intervals (0.5, 1.0, 2.0, 4.0, 8.0, and 24 h for PO, and 0.03, 0.5, 1.0, 2.0, 4.0, 8.0, and 24 h for i.v.).\nCD®(SD) IGS rats (5–6 weeks old) were purchased from Beijing Vital River Laboratory Animal Technology Co., Ltd. (Beijing, China). All animal experiments were conducted in accordance with the requirements of the Experimental Animal Welfare Ethics Committee of Transcenta Diagnostic Technology (Suzhou) Co., Ltd. (PZ-20211210001). For pharmacokinetic experiments, SD rats were randomly divided into two groups, with 3 for PO administration (30 mg kg^−1) and i.v. administration (0.5 mg kg^−1), respectively. Plasma was collected from the jugular vein with the presence of a heparinized syringe at different time intervals, viz. 0.5, 1.0, 2.0, 4.0, 8.0, and 24 h for PO and 0.03, 0.5, 1.0, 2.0, 4.0, 8.0, and 24 h for i.v. Plasma was first centrifuged at 3500 rpm for 10 min, and then 0.05 mL of the plasma was extracted; trifluoroacetic acid was used to acid precipitate protein, and NaOH was used to neutralize the solution. The mixture was diluted using MeCN: H2O (5:5 v/v). After 10 min of precipitating, supernatant fluids were collected by centrifugation at 10,000 rpm for 5 min and filtered with a syringe through a 0.22 μm hydrophilic membrane filter and measured using the HPLC method. For the HPLC assay, the analytical column was an Agilent ZORBAX SB C18 column (4.6 mm × 150 mm, 5 μm). The mobile phase was MeCN:H2O (5:5 v/v), the flow rate of the mobile phase was 0.8 mL min^−1, and the UV detector was set at 245 nm."}, "CD®(SD) IGS rats": {"system": "CD®(SD) IGS rats", "test": "Toxicological study of HL, daily PO administration", "assay_type": "in vivo", "protocol": "Their weight and status were monitored and compared with the control group (groups 1 and 2) that was fed sterilizing solutions. […] This highlights that a 5 mg kg^−1 drug dosage of HL by PO administration is safe for in vivo studies.\nThe weight of the rats was continuously monitored over 27 days, and they were fed on day 1, 4, 8, 13, 16, 19, and 23."}, "[6]": {"test": "Stability of MeOH solutions by UV-Vis", "details": "HL/L concentration 30 μg/mL, kept for 72 h"}, "[7]": {"details": "CD(SD) IGS (SD), rat, plasma, iv, 0.5 mg kg−1, mean, n = 3"}, "[8]": {"details": "CD(SD) IGS (SD), rat, plasma, iv, 0.5 mg/kg, 0.5 mg kg−1, mean, n = 3"}, "[9]": {"details": "CD(SD) IGS (SD), rat, plasma, po, 30 mg/kg, 30 mg kg−1, mean, n = 3"}, "[10]": {"details": "CD(SD) IGS (SD), rat, plasma, PO, 30 mg kg−1, mean, n = 3"}}}
{"molecule": "NC(=S)NN=Cc1ncccc1N", "note": "[Triapine, 3-aminopyridine-2-carboxaldehyde thiosemicarbazone]", "values": [{"measurement": "side effects", "setting": "[1]", "result": "formation of methemoglobin hypoxia"}]}
{"molecule": "NC(=S)NN=Cc1ccc(O)cn1", "note": "[Compound 5-HP, 5-hydroxypicolinaldehyde thiosemicarbazone]", "values": [{"measurement": "side effects", "setting": "[1]", "result": "severe hematological and gastrointestinal side effects"}]}
{"molecule": "S=C(N/N=C1\\CCCc2cccnc21)N1CCN(c2ccccn2)CC1", "note": "[COTI-2, 4-(pyridine-2-yl)-N-([(8E)-5,6,7,8-tetrahydroquinolin-8-ylidene]amino)piperazine-1-carbothioamide]", "values": [{"measurement": "side effects", "setting": "[1]", "result": "drug resistance and other adverse effects (i.e., nausea, vomiting, and fatigue)"}]}
{"molecule": "S=C(NN=C(c1ccccn1)c1ccccn1)N1CCN(c2nccs2)CC1", "note": "[HL, N′-(di(pyridin-2-yl)methylene)-4-(thiazol-2-yl)piperazine-1-carbothiohydrazide]", "values": [{"measurement": "IC50", "setting": "Hep-G2 cells", "result": 78.8, "unit": "µM"}, {"measurement": "IC50", "setting": "PLC/PRF/5 cells", "result": 3.26, "unit": "µM"}, {"measurement": "IC50", "setting": "HuH-7 cells [2]", "result": 192, "unit": "µM"}, {"measurement": "generation of •OH from H2O2 (oxTMB, absorption at 652 nm)", "setting": "[3]", "result": "no oxTMB found"}, {"measurement": "intracellular ROS generation (DCF fluorescence)", "setting": "HuH-7 cells [4]", "result": "negligible ROS"}, {"measurement": "AUC(0-inf)", "setting": "[5]; [7]", "result": "5700 ± 2650", "unit": "ng·h/mL"}, {"measurement": "AUC(0-t)", "setting": "[5]; [7]", "result": 4210, "unit": "ng·h/mL"}, {"measurement": "C0", "setting": "[5]; [7]", "result": 858, "unit": "ng/mL"}, {"measurement": "MRT last", "setting": "[5]; [7]", "result": 7.85, "unit": "h"}, {"measurement": "half-life", "setting": "[5]; [7]", "result": "11.9 ± 1.66", "unit": "h"}, {"measurement": "clearance", "setting": "[5]; CD(SD) IGS (SD), rat, plasma, iv, 0.5 mg kg−1, mean, n = 3, read-out: Cl_obs (converted)", "result": 1.8, "unit": "mL/min/kg"}, {"measurement": "concentration at 0.03 h", "setting": "[5]; CD(SD) IGS (SD), rat, plasma, iv, 0.5 mg kg−1, sampling time 0.03 h", "result": 806, "unit": "ng/mL"}, {"measurement": "concentration at 0.5 h", "setting": "[5]; CD(SD) IGS (SD), rat, plasma, iv, 0.5 mg kg−1, sampling time 0.50 h", "result": 349, "unit": "ng/mL"}, {"measurement": "concentration at 1 h", "setting": "[5]; CD(SD) IGS (SD), rat, plasma, iv, 0.5 mg kg−1, sampling time 1.00 h", "result": 341, "unit": "ng/mL"}, {"measurement": "concentration at 2 h", "setting": "[5]; CD(SD) IGS (SD), rat, plasma, iv, 0.5 mg kg−1, sampling time 2.00 h", "result": 372, "unit": "ng/mL"}, {"measurement": "concentration at 4 h", "setting": "[5]; CD(SD) IGS (SD), rat, plasma, iv, 0.5 mg kg−1, sampling time 4.00 h", "result": 240, "unit": "ng/mL"}, {"measurement": "concentration at 8 h", "setting": "[5]; CD(SD) IGS (SD), rat, plasma, iv, 0.5 mg kg−1, sampling time 8.00 h", "result": 163, "unit": "ng/mL"}, {"measurement": "concentration at 24 h", "setting": "[5]; CD(SD) IGS (SD), rat, plasma, iv, 0.5 mg kg−1, sampling time 24.00 h", "result": 83.8, "unit": "ng/mL"}, {"measurement": "Cmax", "setting": "[5]; [8]", "result": "806 ± 46.7", "unit": "ng/mL"}, {"measurement": "Tmax", "setting": "[5]; [8]", "result": 0.03, "unit": "h"}, {"measurement": "Cmax", "setting": "[5]; [9]", "result": 472, "unit": "ng/mL"}, {"measurement": "Tmax", "setting": "[5]; [9]", "result": 1.17, "unit": "h"}, {"measurement": "AUC(0-inf)", "setting": "[5]; [10]", "result": "10400 ± 5310", "unit": "ng·h/mL"}, {"measurement": "AUC(0-t)", "setting": "[5]; [10]", "result": 5340, "unit": "ng·h/mL"}, {"measurement": "MRT last", "setting": "[5]; [10]", "result": 9.4, "unit": "h"}, {"measurement": "half-life", "setting": "[5]; [10]", "result": "21.6 ± 9.4", "unit": "h"}, {"measurement": "CL/F", "setting": "[5]; CD(SD) IGS (SD), rat, plasma, PO, 30 mg kg−1, mean, n = 3, read-out: Cl_F_obs (converted)", "result": 55.6, "unit": "mL/min/kg"}, {"measurement": "concentration at 0.5 h", "setting": "[5]; CD(SD) IGS (SD), rat, plasma, PO, 30 mg kg−1, sampling time 0.50 h", "result": 242, "unit": "ng/mL"}, {"measurement": "concentration at 1 h", "setting": "[5]; CD(SD) IGS (SD), rat, plasma, PO, 30 mg kg−1, sampling time 1.00 h", "result": 426, "unit": "ng/mL"}, {"measurement": "concentration at 2 h", "setting": "[5]; CD(SD) IGS (SD), rat, plasma, PO, 30 mg kg−1, sampling time 2.00 h", "result": 410, "unit": "ng/mL"}, {"measurement": "concentration at 4 h", "setting": "[5]; CD(SD) IGS (SD), rat, plasma, PO, 30 mg kg−1, sampling time 4.00 h", "result": 316, "unit": "ng/mL"}, {"measurement": "concentration at 8 h", "setting": "[5]; CD(SD) IGS (SD), rat, plasma, PO, 30 mg kg−1, sampling time 8.00 h", "result": 218, "unit": "ng/mL"}, {"measurement": "concentration at 24 h", "setting": "[5]; CD(SD) IGS (SD), rat, plasma, PO, 30 mg kg−1, sampling time 24.00 h", "result": 145, "unit": "ng/mL"}, {"measurement": "Vz_F_obs", "setting": "[5]; PO, 30 mg kg−1, mean, n = 3", "result": 93.07416, "unit": "L/kg"}, {"measurement": "Vss_obs", "setting": "[5]; i.v., 0.5 mg kg−1, mean, n = 3", "result": 1.75547, "unit": "L/kg"}, {"measurement": "Vz_obs", "setting": "[5]; i.v., 0.5 mg kg−1, mean, n = 3", "result": 1.75231, "unit": "L/kg"}, {"measurement": "body weight of rats", "setting": "CD®(SD) IGS rats; daily 5 mg kg−1 (12.2 μmol kg−1), groups 3 and 4, similar to control groups 1 and 2", "result": "constantly growing"}, {"measurement": "rats with abnormal behaviors (decreasing food uptake, cachexia, lethargy) on day 9, which died or were euthanized after drug suspension", "setting": "CD®(SD) IGS rats; daily 10 mg kg−1 (24.4 μmol kg−1), groups 5 and 6", "result": "four of six"}, {"measurement": "stability of MeOH solution (UV-Vis absorption pattern)", "setting": "[6]", "result": "remained stable"}]}
